Experimental findings from patent US9795548B2, “Oral care compositions” (Colgate-Palmolive Company, priority 2012, dated 2017) are described below.

Holding throughout (assay type): cell-based
Test [1] concerns PGE2. Briefly: Mat Tek PGE2 tissue model, anti-inflammatory activity. As to conditions: dentifrice slurry 1:4 in PBS, base dentifrice with 1% active; 2 minutes treatment; IL-β about 10 ng/ml. The method, then: Anti-inflammatory activity of IPM is evaluated using the Mat Tek PGE2 tissue model.
One (1) mL of tissue culture media (supplied by MatTek) is added to each well of a 6-well plate (×4). The plate is incubated overnight (37° C., 5% CO2). Treatment solutions comprising the dentifrice slurries are prepared, wherein the base dentifrice contains 1% isopropyl magnolol. Slurries of the dentifrices are prepared in a 1:4 ratio by weight of dentifrice:phosphate buffered saline (PBS). Slurries are placed on a stir plate for a minimum of 30 minutes to allow the solution to fully homogenize.
The tissue media is prepared by adding IL-β from a frozen stock solution to the tissue culture media. The final concentration of IL-β in the media is about 10 ng/ml.
1 ml of tissue culture media containing IL-β is added to each well of a 6-well plate (×4). […] of treatment solution is then added to the surface of the tissue and let sit for 2 minutes. The treatment solution is removed by aspiration.
The tissue is then washed using about 200 μl of PBS. PBS is then removed by aspiration, and the process is repeated for a total of 3 washes.
Tissue is then transferred the original 6-well plates to new 6-well plates with media containing IL-β. The plates are incubated (37° C., 5% CO2) for between 7 and 24 hours, depending on the active or dentifrice being tested.
The used media from the old 6-well plates is pipetted into a single 24-well plate, for use as a baseline sample. The plates are removed from the incubator and the used media is pipetted from the 6-well plates into a single 24-well plate, for use as a reference sample for the designated time point. The results of this assay are described in Table 3 (below).

Test [2] relates to Streptoccus mutans. Briefly: Minimum Inhibitory Concentration (MIC), two-fold dilutions in trypticase soy broth. The method, then:
(§1) Minimum Inhibitory Concentration (MIC) values are determined generally according to the following method: A series of two-fold dilutions in trypticase soy broth (Catalog No. 211768; Becton Dickinson, Franklin Lakes N.J.) are prepared in a 96 well plate and a constant amount of bacteria is then added to each well. After 18-24 hours of incubation, bacterial growth is measured with a Spectrophotometric Micro-plate Reader (Powerwave 5×, BioTEK, Winooski Vt.) and the MIC values are determined.
(§2) Table 4 (below) describes the antibacterial efficacy of isopropyl magnolol against various oral pathogens.

In test [3] the test system is Fusobcaterium nucleatum. The test is described as above. The method, then: as §1, §2
For test [4], the system named is Streptococcus sanguis. The test is described as above. As to conditions: 18-24 hours of incubation. The method, then: as §1, §2
Test [5] deals with A. actinomycetemcomitans. Described as above. As to conditions: Aggregatibacter actinomycetemcomitans, 18-24 hours of incubation. The method, then:
as §1, §2

Test [6] relates to Actinomyces viscosus. The description is as above. As to conditions: 18-24 hours of incubation. The method, then:
as §1, §2

≈ marks a conversion by molar mass, not a printed value.

Take `CCCCc1ccc(O)c(-c2cc(CCCC)ccc2O)c1` [Butyl magnolol]: the “PGE2 reduction (%)” value in test [1] is on record as 29.98%.

In the case of `CC(C)c1ccc(O)c(-c2cc(C(C)C)ccc2O)c1` [Isopropyl magnolol, 5,5′-diisopropyl-2,2′-dihydroxy biphenol], in test [1], the “PGE2 reduction (%)” value amounted to 90.88%. For the same compound, the MIC in test [2] was determined as 3.9 µg/mL (≈ 14.4 µM); in test [3], 0.97 µg/mL (≈ 3.59 µM); in test [4] it was 1.95 µg/mL (≈ 7.21 µM); in test [5], 3.9 µg/mL (≈ 14.4 µM); in test [6] it was 3.9 µg/mL (≈ 14.4 µM).

For the compound `C=CCc1ccc(O)c(-c2cc(CC=C)ccc2O)c1` [Magnolol, 5,5′-Diallyl-biphenyl-2,2′-diol], in test [1], the “PGE2 reduction (%)” value is reported as 88.23%. Also, the MIC in test [2] is 15.6 µg/mL (≈ 58.6 µM); in test [3] it was 7.8 µg/mL (≈ 29.3 µM); in test [4], 15.6 µg/mL (≈ 58.6 µM); in test [5] it was 15.6 µg/mL (≈ 58.6 µM); in test [6], 15.6 µg/mL (≈ 58.6 µM).
